Assay results: patent US11999746B2, “Compounds” (GlaxoSmithKline Intellectual Property Development Limited, priority 2014, dated 2024)

Legend:
[1] = target: T1, recombinant human Lp-PLA2 (Homo sapiens, UniProt Q13093); assay: (1a) PED6 assay, recombinant human Lp-PLA2 (rhLp-PLA2); type: biochemical; conditions: Examples 1-167 and 413-430 were tested here, one experiment or average of multiple experiments, read-out: rhLp-PLA2 (pIC50) (converted)
T1 sequence (Q13093 22-441): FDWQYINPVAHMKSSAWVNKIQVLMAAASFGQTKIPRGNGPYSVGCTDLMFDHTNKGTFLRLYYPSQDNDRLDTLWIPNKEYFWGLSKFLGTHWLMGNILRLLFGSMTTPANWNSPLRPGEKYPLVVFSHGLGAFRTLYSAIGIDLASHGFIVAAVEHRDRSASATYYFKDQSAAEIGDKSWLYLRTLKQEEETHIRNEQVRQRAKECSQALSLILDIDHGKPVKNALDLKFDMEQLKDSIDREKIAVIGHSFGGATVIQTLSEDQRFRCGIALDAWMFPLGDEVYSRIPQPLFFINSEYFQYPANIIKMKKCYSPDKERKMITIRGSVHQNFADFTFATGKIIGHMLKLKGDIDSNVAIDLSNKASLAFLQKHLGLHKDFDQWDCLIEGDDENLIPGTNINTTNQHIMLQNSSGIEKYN
Outline: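 PED6 (2 μM final after 1:1 addition of 4 μM stock) cleavage by rhLp-PLA2 (4 nM working solution) in 50 mM HEPES pH 7.4, 150 mM NaCl, 1 mM CHAPS; compounds preincubated with enzyme 30 minutes, reaction 20 min at room temperature. Fluorescence at ex 480/em 540; pIC50 from curve fit.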

[2] = target: T2, Lp-PLA2 in human plasma (Homo sapiens, UniProt Q13093); assay: (3a) Lp-PLA2 human plasma Thio-PAF assay; type: biochemical; conditions: (3a) Thio-PAF assay, pooled human plasma; Examples 1-265 and 413-430 were tested here; read-out: pIC50 in the Lp-PLA2 human plasma assay (converted)
T2 construct: from tissue; host or cells: pooled human plasma
T2 sequence (Q13093 22-441): T1 sequence (Q13093 22-441)
Outline: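 Endogenous Lp-PLA2 activity in frozen pooled human plasma measured as thiol release from 2-thio-PAF, detected by CPM fluorescence (ex 380/em 485). Compound preincubation 30 min; 2-min reaction in HEPES pH 7.4 buffer with NEM, stopped with 5% TFA, read 40 min later at room temperature; values as pIC50.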

Row | Structure (SMILES) | IC50 [1] [nM] | IC50 [2] [nM]
1 | CCn1cc(Oc2c(F)cc(COc3cc4n(c(=O)n3)C[C@@H]3COCCN43)cc2F)cn1 [Example E121, (R)-7-((4-((1-ethyl-1H-pyrazol-4-yl)oxy)-3,5-difluorobenzyl)oxy)-3,4,11,11a-tetrahydropyrimido[6′,1′:2,3]imidazo[5,1-c][1,4]oxazin-9(1H)-one] | ≤ 100 | ≤ 10000
2 | N#Cc1cc(COc2cc3n(c(=O)n2)CC2CCCCN32)ccc1Oc1cncc(C(F)(F)F)c1 (stereo not drawn) [Example E10, 5-(((1-Oxo-6,7,8,9,9a,10-hexahydro-1H-pyrido[1′,2′:3,4]imidazo[1,2-c]pyrimidin-3-yl)oxy)methyl)-2-((5-(trifluoromethyl)pyridin-3-yl)oxy)benzonitrile] | ≤ 1 | ≤ 100
3 | CCCn1cc(Oc2c(F)cc(COc3cc4n(c(=O)n3)C[C@@H]3COCCN43)cc2F)cn1 [Example E122, (R)-7-((3,5-difluoro-4-((1-propyl-1H-pyrazol-4-yl)oxy)benzyl)oxy)-3,4,11,11atetrahydropyrimido[6′,1′:2,3]imidazo[5,1-c][1,4]oxazin-9(1H)-one] | ≤ 100 | ≤ 10000
4 | O=c1nc(OCc2cc(F)c(Oc3ccnc(C(F)(F)F)c3)c(F)c2)cc2n1C[C@H]1COCN21 [Example E141, (S)-6-((3,5-difluoro-4-((2-(trifluoromethyl)pyridin-4-yl)oxy)benzyl)oxy)-10,10a-dihydro-1H-oxazolo[3′,4′:3,4]imidazo[1,2-c]pyrimidin-8(3H)-one] | ≤ 1 | ≤ 100
5 | Cn1cc(Oc2c(F)cc(COc3cc4n(c(=O)n3)C[C@H]3COCCN43)cc2F)cn1 [Example E114, (S)-7-((3,5-difluoro-4-((1-methyl-1H-pyrazol-4-yl)oxy)benzyl)oxy)-3,4,11,11a-tetrahydropyrimido[6′,1′:2,3]imidazo[5,1-c][1,4]oxazin-9(1H)-one] | ≤ 100 | ≤ 100
6 | N#Cc1ccc(Oc2ccc(COc3cc4n(c(=O)n3)CC3CCCCN43)cc2C#N)cc1Cl (stereo not drawn) [Example E20, 2-Chloro-4-(2-cyano-4-(((1-oxo-6,7,8,9,9a,10-hexahydro-1H-pyrido[1′,2′:3,4]imidazo[1,2-c]pyrimidin-3-yl)oxy)methyl)phenoxy)benzonitrile] | ≤ 1 | ≤ 100
7 | Cc1ccc(Oc2c(F)cc(COc3cc4n(c(=O)n3)C[C@@H]3COCN43)cc2F)cn1 [Example E157, (R)-6-((3,5-difluoro-4-((6-methylpyridin-3-yl)oxy)benzyl)oxy)-10,10a-dihydro-1H-oxazolo[3′,4′:3,4]imidazo[1,2-c]pyrimidin-8(3H)-one] | ≤ 100 | ≤ 10000
8 | CN1c2cc(OCc3cc(F)c(F)cc3F)nc(=O)n2CC12CCC2 [Example 429, 1-methyl-7′-((2,4,5-trifluorobenzyl)oxy)-1′H-spiro[cyclobutane-1,2′-imidazo[1,2-c]pyrimidin]-5′(3′H)-one] | ≤ 100 | ≤ 10000
9 | Cc1cc(Oc2c(F)cc(COc3cc4n(c(=O)n3)C[C@@H]3COCN43)cc2F)ccn1 [Example E155, (R)-6-((3,5-difluoro-4-((2-methylpyridin-4-yl)oxy)benzyl)oxy)-10,10a-dihydro-1H-oxazolo[3′,4′:3,4]imidazo[1,2-c]pyrimidin-8(3H)-one] | ≤ 100 | ≤ 10000
10 | CN1c2cc(OCc3ccc(F)cc3F)nc(=O)n2CC12CCCC2 [Example 419, 7′4(2,4-difluorobenzyhoxy)-1-methyl-1H-spiro[cyclopentane-1,2′-imidazo[1,2-c]pyrimidin]-5′(3′H)-one] | ≤ 100 | ≤ 10000
11 | Cn1cc(Oc2c(F)cc(COc3cc4n(c(=O)n3)C[C@@H]3COCCN43)cc2F)cn1 [Example E120, (R)-7-((3,5-difluoro-4-((1-methyl-1H-pyrazol-4-yl)oxy)benzyl)oxy)-3,4,11,11a-tetrahydropyrimido[6′,1′:2,3]imidazo[5,1-c][1,4]oxazin-9(1H)-one] | ≤ 100 | ≤ 10000

The remaining lines, values ahead:

Row | IC50 [1] [nM] | IC50 [2] [nM] | Structure (SMILES)
12 | ≤ 100 | ≤ 10000 | O=c1nc(OCc2cc(F)c(F)c(F)c2)cc2n1C[C@@H]1CCCCN21 [Example E32, (S)-3-((3,4,5-Trifluorobenzyl)oxy)-6,7,8,9,9a,10-hexahydro-1H-pyrido[1′,2′:3,4]imidazo[1,2-c]pyrimidin-1-one]
13 | ≤ 1 | ≤ 100 | O=c1nc(OCc2cc(F)c(Oc3ccc(C(F)(F)F)nc3)c(F)c2)cc2n1CC1CCCN21 (stereo not drawn) [Example E78, 3-((3,5-Difluoro-4-((6-(trifluoromethyl)pyridin-3-yl)oxy)benzyl)oxy)-7,8,8a,9-tetrahydro pyrrolo[1′,2′:3,4]imidazo[1,2-c]pyrimidin-1(6H)-one]
14 | ≤ 100 | ≤ 10000 | Cn1cc(Oc2c(F)cc(COc3cc4n(c(=O)n3)CC3CCCN43)cc2F)cn1 (stereo not drawn) [Example E63, 3-((3,5-Difluoro-4-((1-methyl-1H-pyrazol-4-yl)oxy)benzyl)oxy)-7,8,8a,9-tetrahydro pyrrolo[1′,2′:3, 4] imidazo[1,2-c] pyrimidin-1(6H)-one]
15 | ≤ 100 | ≤ 100 | O=c1nc(OCc2ccc(F)c(F)c2)cc2n1CC1CCCCN21 (stereo not drawn) [Example E5, 3-((3,4-Difluorobenzyl)oxy)-6,7,8,9,9a,10-hexahydro-1H-pyrido[1′,2′:3,4]imidazo[1,2-c] pyrimidin-1-one]
16 | ≤ 100 | ≤ 10000 | Cn1cc(Oc2c(F)cc(COc3cc4n(c(=O)n3)C[C@H]3CCCN43)cc2F)cn1 [Example E66, (R)-3-((3,5-difluoro-4-((1-methyl-1H-pyrazol-4-yl)oxy)benzyl)oxy)-7,8,8a, 9-tetrahydro pyrrolo[1′,2′:3,4]imidazo[1,2-c]pyrimidin-1(6H)-one]
17 | ≤ 100 | ≤ 10000 | O=c1nc(OCc2cc(F)c(OC3CCCC(F)(F)C3)c(F)c2)cc2n1C[C@@H]1CCCN21 (stereo partly drawn) [Example E93, (S)-3-((4-((3,3-difluorocyclohexyl)oxy)-3,5-difluorobenzyl)oxy)-7,8,8a,9-tetrahydropyrrolo[1′,2′:3,4]imidazo[1,2-c]pyrimidin-1(6H)-one]
18 | ≤ 1 | ≤ 100 | O=c1nc(OCc2ccc(Oc3ccnc(C(F)(F)F)c3)c(F)c2)cc2n1CC1CCCCN21 (stereo not drawn) [Example E44, 3-((3-Fluoro-4-((2-(trifluoromethyl)pyridin-4-yl)oxy)benzyl)oxy)-6,7,8,9,9a,10-hexahydro-1H-pyrido[1′,2′:3,4]imidazo[1,2-c]pyrimidin-1-one]
19 | ≤ 100 | ≤ 100 | O=c1nc(OCc2cc(F)c(F)c(F)c2)cc2n1C[C@@H]1CCOCN21 [Example E139, (S)-3-((3,4,5-trifluorobenzyl)oxy)-8,9,9a,10-tetrahydropyrimido[6′,1′:2,3]imidazo[1,5-c][1,3] oxazin-1(6H)-one]
20 | ≤ 1 | ≤ 10000 | O=c1nc(OCc2ccc(Oc3ccc(C(F)(F)F)nc3)c(F)c2)cc2n1CC1CCCCN21 (stereo not drawn) [Example E48, 3-((3-Fluoro-4-((6-(trifluoromethyl)pyridin-3-yl)oxy)benzyl)oxy)-6,7,8,9,9a,10-hexahydro-1H-pyrido[1′,2′:3,4]imidazo[1,2-c]pyrimidin-1-one]
21 | ≤ 100 | ≤ 10000 | O=c1nc(OCc2cc(F)cc(F)c2)cc2n1C[C@H]1CCCN21 [Example E103, (R)-3-((3,5-difluorobenzyl)oxy)-7,8,8a,9-tetrahydropyrrolo[1,2′:3,4]imidazo[1,2-c] pyrimidin-1(6H)-one]
